# In US9050295B2, “Composition for treatment of tuberculosis” (ETH Zurich, priority 2007, dated 2015):
# “Also recorded” adds a separate entry of the source.
# Columns and labels:
# E-ETR interaction = experiment: Specificity control ELISA, macrolide-dependent repressor E and operator ETR; format: binding; conditions: ELISA set-up as FIG. 2B
# Experimental: To exclude that 2-phenylethyl butyrate indiscriminatingly modulates protein-DNA interactions the macrolide-dependent repressor-operator configuration is challenged with this compound in an identical ELISA set-up as shown in FIG. 2B. The E-ETR interaction is insensitive to 2-phenylethyl butyrate (PEB) and can exclusively be abolished in the presence of erythromycin (EM, 5 μg/ml).
# The repressor protein E binds to its cognate operator sequence ETR and is released thereof in the presence of macrolide antibiotics like erythromycin as described in U.S. Pat. No. 7,273,723.
# EthR-his6 is produced as previously described for E-his6 [Weber, C. C. et al., supra] with the exception that the biotinylated operator sequence (OethR) is incubated with a 100 μl streptavidin agarose bead suspension (Novagen, Madison, Wis., USA, cat. no. 69203) for 1 h at 4° C. while rotating.
# [1] = molecular target: T1, EthR-VP16 binding to OethR (Mycobacterium bovis, UniProt Q7TVI1); experiment: cell-based; format: cell-based, M. tuberculosis
# HEK-293 = HEK-293 with constitutive SEAP expression, 0-3.2 mM, 48 h
# [2] = molecular target: T1, EthR-VP16 binding to OethR; format: in vivo; conditions: mice, 625 μl/kg injected 1 and 25 h post implantation, serum at 48 h
# EthR-OethR interaction = EthR-OethR interaction (Mycobacterium bovis, UniProt Q7TVI1); format: binding, M. tuberculosis; conditions: ELISA, E. coli cell lysate, OD450
# M. bovis BCG = format: cell-based
# M. tuberculosis H37Rv = format: cell-based
# [3] = mouse, in vivo, ip
# [4] = HEK-293 with EthR-based gene circuit, 0-3.2 mM, 48 h
# T1 sequence (Q7TVI1 whole entry, looked up): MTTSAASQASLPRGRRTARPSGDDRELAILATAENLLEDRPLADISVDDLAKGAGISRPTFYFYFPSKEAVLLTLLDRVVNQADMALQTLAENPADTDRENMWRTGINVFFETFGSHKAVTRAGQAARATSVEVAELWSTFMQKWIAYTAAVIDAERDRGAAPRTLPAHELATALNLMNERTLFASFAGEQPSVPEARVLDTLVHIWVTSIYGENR
# Chain of EthR-OethR interaction (Q7TVI1 whole entry, looked up): as above
structure (smiles),measurement,setting,value
"CC[C@H]1OC(=O)[C@H](C)[C@@H](O[C@H]2C[C@@](C)(OC)[C@@H](O)[C@H](C)O2)[C@H](C)[C@@H](O[C@@H]2O[C@H](C)C[C@H](N(C)C)[C@H]2O)[C@](C)(O)C[C@@H](C)C(=O)[C@H](C)[C@@H](O)[C@]1(C)O [erythromycin, reference compound]",E-ETR interaction,E-ETR interaction; 5 μg/ml,abolished
CC(=O)CCc1ccccc1 [4-Phenyl-2-butanone],SEAP expression,[1]; [4],significant decrease in SEAP expression
same,cytotoxicity,HEK-293,does not correlate with cytotoxicity
CCCC(=O)OCCc1ccccc1 [2-Phenylethyl butyrate],IC50,[1],500 µM
same,SEAP expression,[1]; [4],significant decrease in SEAP expression
same,SEAP serum levels,[2],0.21±0.03 U/L
same,modulation of the EthR-OethR interaction,EthR-OethR interaction,exclusively and specifically modulates the EthR-OethR interaction
same,E-ETR interaction,E-ETR interaction; 2-phenylethyl butyrate,insensitive
same,growth inhibition of M. bovis BCG in combination with ethionamide,M. bovis BCG; 0.5 and 2 mM with sub-inhibitory ethionamide 0.25 and 0.5 μg/ml,dose-dependently inhibited; also recorded: Synergistic effect
same,"growth inhibitory effect alone, M. bovis BCG",M. bovis BCG; without ethionamide,does not show any growth inhibitory effect
same,growth inhibition of M. tuberculosis H37Rv in combination with ethionamide,M. tuberculosis H37Rv,dose-dependently inhibited; also recorded: Synergistic effect
same,"growth inhibitory effect alone, M. tuberculosis H37Rv",M. tuberculosis H37Rv,does not show any growth inhibitory effect
same,inflammation at the injection site,[3],no inflammation at the injection site
"CCCCCCCCCCCCCCCCOC(=O)CCCCCCC [Hexadecyl octanoate, reference compound]",SEAP expression,"[1]; HEK-293 containing pWW489 and pWW491, 10 mM",fails to decrease SEAP expression
CC(=O)OCc1ccccc1 [Benzyl acetate],SEAP expression,[1]; [4],significant decrease in SEAP expression
CCC(=O)OCCCc1ccccc1 [3-Phenylpropyl propionate],SEAP expression,[1]; [4],significant decrease in SEAP expression
